Experimental data reported in patent US6623730B1, “Therapeutic uses of polymers and oligomers comprising gamma-hydroxybutyrate” (Tepha, Inc., priority 1999, dated 2003).

Experiments:
[1] = cited from earlier work
[2] = Digestibility of GHB oligomers in normal rats: serum GHB after gavage (GC-MS); conditions: for time for serum GHB to decrease to baseline values / be absorbed and cleared from the circulation: after gavage with GHB monomer
sleep = conditions: rat, large dose; cited from earlier work
[3] = male, Sprague-Dawley, rat, serum, oral, 50 mg/kg

Structure (SMILES) | time of peak plasma concentration ([1]; after oral administration) [min] | half-life of GHB ([1]; in vivo) [min] | concentration at 0.5 h [2, 3] [µM] | concentration at 1 h [2, 3] [µM] | concentration at 2 h [2, 3] [µM] | concentration at 4 h [2, 3] [µM] | GHB Monomer [GHB] concentration of GHB in serum ([2]; rat serum, 0.5 hr after gavage with 50 mg/kg sodium GHB monomer in TWEEN, 50 mg/kg) [µM] | time for serum GHB to decrease to baseline values / be absorbed and cleared from the circulation ([2]; rat, listed as GHB monomer) [h] | time for serum GHB to decrease to baseline values / be absorbed and cleared from the circulation ([2]; rat, listed as monomer) [h] | sleep duration (sleep)
O=C(O)CCCO [GHB Monomer, Gamma-hydroxybutyrate] | 20 to 60 | 35 | 182 ± 158 | 23.2 ± 2.05 | 12.8 ± 2.62 | 14.9 ± 3.31 | 182 ± 158 | ≤ 2 | 1 to 2 | –
CCOC(=O)CCCOC(C)=O [ethyl 4-acetoxybutanoate] | – | – | – | – | – | – | – | – | – | four
